Columns and labels:
Assay in all cases: NCI-60 one-dose screen
Format in all cases: cell-based
NCI-H322M = conditions: Homo sapiens, Non-small cell lung panel, single dose 10^−5 M, read-out: Growth inhibition %
U251 = conditions: Homo sapiens, U-251; U251, CNS Cancer panel; single dose 10^−5 M; read-out: Growth inhibition %
MCF7 = conditions: Homo sapiens; MCF7, Breast Cancer panel; single dose 10^−5 M; read-out: Growth inhibition %
MALME-3M = conditions: Homo sapiens, Melanoma panel, single dose 10^−5 M, read-out: Growth inhibition %
PC-3 = conditions: Homo sapiens; PC-3, Prostate Cancer panel; single dose 10^−5 M; read-out: Growth inhibition %
T-47D = conditions: Homo sapiens, T47D, Breast Cancer panel, single dose 10^−5 M, read-out: Growth inhibition %
COLO 205 = conditions: Homo sapiens; COLO 205, Colon Cancer panel; single dose 10^−5 M; read-out: Growth inhibition %
UACC-257 = conditions: Homo sapiens; UACC-257, Melanoma panel; single dose 10^−5 M; read-out: Growth inhibition %
NCI-H23 = conditions: Homo sapiens; NCI-H23, Non-small cell lung panel; single dose 10^−5 M; read-out: Growth inhibition %
SK-MEL-2 = conditions: Homo sapiens; SK-MEL-2, Melanoma panel; single dose 10^−5 M; read-out: Growth inhibition %
UACC-62 = conditions: Homo sapiens; UACC-62, Melanoma panel; single dose 10^−5 M; read-out: Growth inhibition %
NCI/ADR-RES = conditions: Homo sapiens, Ovarian Cancer panel, single dose 10^−5 M, read-out: Growth inhibition %
HOP-62 = conditions: Homo sapiens; HOP-62, Non-small cell lung panel; single dose 10^−5 M; read-out: Growth inhibition %
HS 578T = conditions: Homo sapiens, Breast Cancer panel, single dose 10^−5 M, read-out: Growth inhibition %
ACHN = conditions: Homo sapiens, Renal Cancer panel, single dose 10^−5 M, read-out: Growth inhibition %
SK-MEL-5 = conditions: Homo sapiens; SK-MEL-5, Melanoma panel; single dose 10^−5 M; read-out: Growth inhibition %
A549/ATCC = conditions: Homo sapiens, Non-small cell lung panel, single dose 10^−5 M, read-out: Growth inhibition %
CAKI-1 = conditions: Homo sapiens; CAKI-1, Renal Cancer panel; single dose 10^−5 M; read-out: Growth inhibition %
BT-549 = conditions: Homo sapiens; BT-549, Breast Cancer panel; single dose 10^−5 M; read-out: Growth inhibition %
EKVX = conditions: Homo sapiens, Non-small cell lung panel, single dose 10^−5 M, read-out: Growth inhibition %
MDA-MB-468 = conditions: Homo sapiens; MDA-MB-468, Breast Cancer panel; single dose 10^−5 M; read-out: Growth inhibition %
SF-295 = conditions: Homo sapiens; SF-295, CNS Cancer panel; single dose 10^−5 M; read-out: Growth inhibition %
HL-60(TB) = conditions: Homo sapiens, Leukemia panel, single dose 10^−5 M, read-out: Growth inhibition %
786-0 = conditions: Homo sapiens; 786-0, Renal Cancer panel; single dose 10^−5 M; read-out: Growth inhibition %
SN12C = conditions: Homo sapiens, Renal Cancer panel, single dose 10^−5 M, read-out: Growth inhibition %
HCT-116 = conditions: Homo sapiens, read-out: Growth inhibition %
HT29 = conditions: Homo sapiens, HT-29; HT29, Colon Cancer panel; single dose 10^−5 M; read-out: Growth inhibition %
SW-620 = conditions: Homo sapiens; SW-620, Colon Cancer panel; single dose 10^−5 M; read-out: Growth inhibition %
NCI-H522 = conditions: Homo sapiens; NCI-H522, Non-small cell lung panel; single dose 10^−5 M; read-out: Growth inhibition %
OVCAR-4 = conditions: Homo sapiens; OVCAR-4, Ovarian Cancer panel; single dose 10^−5 M; read-out: Growth inhibition %
M14 = conditions: Homo sapiens; M14, Melanoma panel; single dose 10^−5 M; read-out: Growth inhibition %
SNB-75 = conditions: Homo sapiens; SNB-75, CNS Cancer panel; single dose 10^−5 M; read-out: Growth inhibition %
HOP-92 = conditions: Homo sapiens; HOP-92, Non-small cell lung panel; single dose 10^−5 M; read-out: Growth inhibition %

SMILES	inhibition at 10 µM (NCI-H322M) [%]	inhibition at 10 µM (U251) [%]	inhibition at 10 µM (MCF7) [%]	inhibition at 10 µM (MALME-3M) [%]	inhibition at 10 µM (PC-3) [%]	inhibition at 10 µM (T-47D) [%]	inhibition at 10 µM (COLO 205) [%]	inhibition at 10 µM (UACC-257) [%]	inhibition at 10 µM (NCI-H23) [%]	inhibition at 10 µM (SK-MEL-2) [%]	inhibition at 10 µM (UACC-62) [%]	inhibition at 10 µM (NCI/ADR-RES) [%]	inhibition at 10 µM (HOP-62) [%]	inhibition at 10 µM (HS 578T) [%]	inhibition at 10 µM (ACHN) [%]	inhibition at 10 µM (SK-MEL-5) [%]	inhibition at 10 µM (A549/ATCC) [%]	inhibition at 10 µM (CAKI-1) [%]	inhibition at 10 µM (BT-549) [%]	inhibition at 10 µM (EKVX) [%]	also measured
COc1ccc(CNc2c3ccccc3nc3ccccc23)cc1OC [Compound 18, Acridin-9-yl-(3,4-dimethoxybenzyl)-amine]	70.2	76.8	99.3	92.1	78	74.2	94.7	77.9	84.9	61.4	73.2	80.7	65.5	62.8	95.9	82.5	83.7	89.5	57.9	84.8	inhibition at 10 µM (MDA-MB-468): 123%; inhibition at 10 µM (SF-295): 81.9%; inhibition at 10 µM (HL-60(TB)): 87.3%; inhibition at 10 µM (786-0): 74.6%; inhibition at 10 µM (SN12C): 77.5%; inhibition at 10 µM (HCT-116): 87.8%; inhibition at 10 µM (HT29): 95.6%; inhibition at 10 µM (SW-620): 84%; inhibition at 10 µM (NCI-H522): 81.8%; inhibition at 10 µM (OVCAR-4): 78.6%; inhibition at 10 µM (M14): 82.3%; inhibition at 10 µM (SNB-75): 75.2%; inhibition at 10 µM (HOP-92): 110%
Fc1cccc(CNc2c3ccccc3nc3ccccc23)c1F [Compound 20, Acridin-9-yl-(2,3-difluorobenzyl)-amine]	36.6	34.5	70.2	5.87	42.9	31.7	59.1	7.14	39.4	-6.76	24.3	51.5	27.3	13	69.4	17	43.3	54.3	9.44	37.1	inhibition at 10 µM (MDA-MB-468): 78%; inhibition at 10 µM (SF-295): 46.2%; inhibition at 10 µM (HL-60(TB)): 24%; inhibition at 10 µM (786-0): 34.6%; inhibition at 10 µM (SN12C): 51%; inhibition at 10 µM (HCT-116): 82.5%; inhibition at 10 µM (HT29): 70.9%; inhibition at 10 µM (SW-620): 58.6%; inhibition at 10 µM (NCI-H522): 46.1%; inhibition at 10 µM (OVCAR-4): 50.1%; inhibition at 10 µM (M14): 29.4%; inhibition at 10 µM (SNB-75): 21.2%; inhibition at 10 µM (HOP-92): 97.3%
Fc1ccc(CNc2c3ccccc3nc3ccccc23)c(F)c1 [Compound 21, Acridin-9-yl-(2,4-difluorobenzyl)-amine]	50.8	55.9	89.8	30.5	31.1	52.6	73.2	31.1	57.2	0.35	40.9	63.8	42.8	24.6	76.5	30.6	59.9	64.7	17.2	54.5	inhibition at 10 µM (MDA-MB-468): 104%; inhibition at 10 µM (SF-295): 59.6%; inhibition at 10 µM (HL-60(TB)): 41.7%; inhibition at 10 µM (786-0): 52.4%; inhibition at 10 µM (SN12C): 62.8%; inhibition at 10 µM (HCT-116): 85.8%; inhibition at 10 µM (HT29): 78.2%; inhibition at 10 µM (SW-620): 70.2%; inhibition at 10 µM (NCI-H522): 57.7%; inhibition at 10 µM (OVCAR-4): 108%; inhibition at 10 µM (M14): 44.7%; inhibition at 10 µM (SNB-75): 18.9%; inhibition at 10 µM (HOP-92): 103%
Fc1ccc(CNc2c3ccccc3nc3ccccc23)cc1F [Compound 22, Acridin-9-yl-(3,4-difluorobenzyl)-amine]	61	69.7	87.1	49.3	64.3	52.1	83.9	34.9	64.8	10.6	40	72.4	48.7	35.2	80.7	33.8	70.9	74.7	31.8	64.5	inhibition at 10 µM (MDA-MB-468): 111%; inhibition at 10 µM (SF-295): 70.2%; inhibition at 10 µM (HL-60(TB)): 65.5%; inhibition at 10 µM (786-0): 68.5%; inhibition at 10 µM (SN12C): 70.3%; inhibition at 10 µM (HCT-116): 91.8%; inhibition at 10 µM (HT29): 86.6%; inhibition at 10 µM (SW-620): 76.3%; inhibition at 10 µM (NCI-H522): 63%; inhibition at 10 µM (OVCAR-4): 64.6%; inhibition at 10 µM (M14): 56.9%; inhibition at 10 µM (SNB-75): 33.8%; inhibition at 10 µM (HOP-92): 109%
c1ccc(CCNc2c3ccccc3nc3ccccc23)cc1 [Compound 23, Acridin-9-yl-phenethyl-amine]	53.4	58.9	87.8	42.9	64.3	51.1	78.8	44.8	61.4	13.7	46.8	66.5	44.9	26.7	78.4	35.3	67.3	69.7	26.4	63.7	inhibition at 10 µM (MDA-MB-468): 111%; inhibition at 10 µM (SF-295): 65.1%; inhibition at 10 µM (HL-60(TB)): 58.7%; inhibition at 10 µM (786-0): 61.9%; inhibition at 10 µM (SN12C): 66.9%; inhibition at 10 µM (HCT-116): 83.5%; inhibition at 10 µM (HT29): 77.9%; inhibition at 10 µM (SW-620): 71.7%; inhibition at 10 µM (NCI-H522): 60.2%; inhibition at 10 µM (OVCAR-4): 65%; inhibition at 10 µM (M14): 57.3%; inhibition at 10 µM (SNB-75): 32.4%; inhibition at 10 µM (HOP-92): 102%
